Results: US5449814A, “Lignan analogues, methods of preparation thereof and anti-hyperlipemic agents” (Shionogi & Co., Ltd., priority 1991, dated 1995)
Where two headings read alike, the source gives them in different places.

Tests used:
LDL = experiment: Inhibitory effect on oxidative modification of LDL (copper-induced, TBA reactive substances); assay type: biochemical, New Zealand albino rabbits; conditions: rabbit LDL 0.2 mg protein/ml, 0.5 μM Cu^2+, 37° C., 24 hours; read-out: Inhibition of LDL oxidation IC50
Protocol: Inhibitory effect on oxidative modification of LDL
According to the method by Kita et al. (Proc. Natl. Acad. Sci., U.S.A, Vol. 84, 5928 (1987)), the experiment was proceeded as follows.
LDL was isolated from the blood of New Zealand albino rabbits fed with a diet containing 0.5% cholesterol for 3 weeks, and dissolved in phosphate-buffered physiological saline (final LDL concentration: 0.2 mg protein/ml). To this solution, each test compound in ethanol was added and then copper sulfate (final Cu^2+ concentration: 0.5 μM) was added thereto. The mixture was incubated at 37° C. for 24 hours.
After incubation, the content of lipid peroxides in each solution was determined as thiobarbituric acid reactive substances (TBA reactive substances). Concentration for 50% inhibition (IC50) was obtained from a linear regression curve of concentration of a compound versus % inhibition of oxidative modification of LDL. To quantify TBA reactive substances, proteins were removed from the solution after incubation, and the supernatant was examined for the content of TBA reactive substances by TBA method.

cholesterol in serum = experiment: Hypocholesterolemic effect in cholesterol-fed mice; assay type: in vivo, Male ICR mice; conditions: Mus musculus, po, 168 h, diet 1% cholesterol and 0.5% sodium cholate with 0.12% test compound, 7 days
Protocol: Hypocholesterolemic effect
Male ICR mice weighing 30 to 40 g were allowed to access to a diet containing 1% cholesterol and 0.5% sodium cholate supplemented with 0.12% of a test compound (no test compound in control group) ad libitum for 7 days. Then, the blood was taken and total cholesterol in serum was determined by the method of Allain (Clin. Chem., Vol. 20, 470 (1974)).
Total amount of VLDL cholesterol and LDL cholesterol was obtained by subtracting HLD cholesterol from total cholesterol. HLD cholesterol was quantified by the method of Ash and Hentschel et al. (Clin. Chem., Vol. 24, 2180 (1978)).
Hypocholesterolemic effect of a test compound was evaluated based on % reduction in cholesterol calculated using the equation shown below.

[1] = serum, read-out: Total Chol. reduction (%)
[2] = total minus HDL cholesterol, read-out: (VLDL + LDL) Chol. reduction (%)

| SMILES | IC50 (LDL) | inhibition in vivo at 0.12 % in diet (cholesterol in serum; [1]) | inhibition in vivo at 0.12 % in diet (cholesterol in serum; [2]) |
| --- | --- | --- | --- |
| COC(=O)c1c(C(=O)c2ccccc2)c(O)c2cc(OC)c(OC)c(OC)c2c1-c1ccc(OC)c(OC)c1 [Example 6, 3-Benzoyl-1-(3,4-dimethoxyphenyl)-4-hydroxy-2-methoxycarbonyl-6,7,8-trimethoxynaphthalene] | 180 nM | 16% | 55% |
| COC(=O)c1c(C(=O)c2ccc(Cl)cc2)c(O)c2cc(OC)c(OC)c(OC)c2c1-c1ccc(OC)c(OC)c1 [Example 23, 3-(4-Chlorobenzoyl)-1-(3,4-dimethoxyphenyl)-4-hydroxy-2-methoxycarbonyl-6,7,8-trimethoxynaphthalene] | 1420 nM | 28% | 74% |
| COC(=O)c1c(C(=O)C(C)C)c(O)c2c(C)c(OC)c(OC)c(OC)c2c1-c1ccc(OC)c(OC)c1 [Example 76, 1-(3,4-dimethoxyphenyl)-3-(2-methyl-1-oxo-propyl)-4-hydroxy-2-methoxycarbonyl-5-methyl-6,7,8-trimethoxynaphthalene] | 540 nM | 15% | 43% |
| COC(=O)c1c(C(=O)c2ccc(C(F)(F)F)cc2)c(O)c2cc(OC(C)C)c(OC(C)C)cc2c1-c1ccc(OC)c(OC)c1 [Example 40, 6,7-Bis(2-propyloxy)-1-(3,4-dimethoxyphenyl)-4-hydroxy-2-methoxycarbonyl-3-[4-(trifluoromethyl)benzoyl]naphthalene] | 4290 nM | 23% | 56% |
| COC(=O)c1c(C(=O)c2cccc(C)c2)c(O)c2cc(OC)c(OC)c(OC)c2c1-c1ccc(OC)c(OC)c1 [Example 18, 1-(3,4-Dimethoxyphenyl)-4-hydroxy-2-methoxycarbonyl-3-(3-methylbenzoyl)-6,7,8-trimethoxynaphthalene] | 1000 nM | 13% | 66% |
| CCC(CC)CC(=O)c1c(C(=O)OC)c(-c2ccc(OC)c(OC)c2)c2c(OC)c(OC)c(OC)cc2c1O [Example 1, 1-(3,4-dimethoxyphenyl)-3-(3-ethyl-1-oxopentyl)-4-hydroxy-2-methoxycarbonyl-6,7,8-trimethoxynaphthalene] | 400 nM | 35% | 72% |
| COC(=O)c1c(C(=O)c2ccc(C(F)(F)F)cc2)c(O)c2cc(OC)c(OC)c(OC)c2c1-c1ccc(OC)c(OC)c1 [Example 28, 1-(3,4-Dimethoxyphenyl)-4-hydroxy-2-methoxycarbonyl-3-[4-(trifluoromethyl)benzoyl]-6,7,8-trimethoxynaphthalene] | 1520 nM | 22% | 61% |
| COc1ccc(-c2c(C)c(C(=O)c3ccc(C(F)(F)F)cc3)c(O)c3cc(OC)c(OC)c(OC)c23)cc1OC [Example 62, 1-(3,4-dimethoxyphenyl)-4-hydroxy-2-methyl-3-[4-(trifluoromethyl)benzoyl]-6,7,8-trimethoxynaphthalene] | 8980 nM | 27% | 59% |
| COC(=O)c1c(C(=O)c2ccc(F)cc2)c(O)c2cc(OC)c(OC)c(OC)c2c1-c1ccc(OC)c(OC)c1 [Example 26, 1-(3,4-Dimethoxyphenyl)-3-(4-fluorobenzoyl)-4-hydroxy-2-methoxycarbonyl-6,7,8-trimethoxynaphthalene] | 790 nM | 10% | 54% |
| CCC(=O)c1c(C(=O)OC)c(-c2ccc(OC)c(OC)c2)c2c(OC)c(OC)c(OC)c(COC)c2c1O [Example 74, 1-(3,4-dimethoxyphenyl)-3-(1-oxopropyl)-4-hydroxy-2-methoxycarbonyl-5-methoxymethyl-6,7,8-trimethoxynaphthalene] | 6560 nM | 6% | 41% |
| COC(=O)c1c(C(=O)c2ccc(C(F)(F)F)cc2)c(O)c2cc3c(cc2c1-c1ccc(OC)cc1OC)OCO3 [Example 46, 1-(2,4-Dimethoxyphenyl)-4-hydroxy-2-methoxycarbonyl-6,7-methylenedioxy-3-[4-(trifluoromethyl)benzoyl]naphthalene] | 6200 nM | 5% | 47% |
| COC(=O)c1c(C(=O)c2ccc(C(C)(C)C)cc2)c(O)c2cc(OC)c(OC)c(OC)c2c1-c1ccc(OC)c(OC)c1 [Example 30, 3-[4-(t-Butyl)benzoyl]-1-(3,4-dimethoxyphenyl)-4-hydroxy-2-methoxycarbonyl-6,7,8-trimethoxynaphthalene] | 2000 nM | 7% | 44% |
| CCC(CC)CC(=O)c1c(C(=O)OC)c(-c2ccc(OC)c(OC)c2)c2cc3c(cc2c1O)OCCO3 [Example 36, 1-(3,4-Dimethoxyphenyl)-6,7-ethylenedioxy-3-(3-ethyl-1-oxopentyl)-4-hydroxy-2-(methoxycarbonyl)naphthalene] | 2210 nM | 21% | 49% |
| CCC(=O)c1c(C(=O)OC)c(-c2ccc(OC)c(OC)c2)c2cc(OC(C)C)c(OC(C)C)cc2c1O [Example 38, 6,7-Bis(2-propyloxy)-1-(3,4-dimethoxyphenyl)-4-hydroxy-2-methoxycarbonyl-3-(1-oxopropyl)naphthalene] | 2100 nM | 26% | 61% |
| COC(=O)c1c(C(=O)C(F)(F)C(F)(F)F)c(O)c2cc(OC)c(OC)c(OC)c2c1-c1ccc(OC)c(OC)c1 [Example 31, 1-(3,4-Dimethoxyphenyl)-4-hydroxy-2-methoxycarbonyl-3-(pentafluoro-1-oxopropyl)-6,7,8-trimethoxynaphthalene] | 850 nM | 15% | 41% |
| COC(=O)c1c(C(=O)C(C)C)c(O)c2cc(OC)c(OC)c(OC)c2c1-c1ccc(OC)c(OC)c1 [Example 3, 1-(3,4-Dimethoxyphenyl)-4-hydroxy-2-methoxycarbonyl-3-(2-methyl-1-oxopropyl)-6,7,8-trimethoxynaphthalene] | 120 nM | 21% | 57% |
| CCC(CC)CC(=O)c1c(C(=O)OC)c(-c2ccc(OC)c(OC)c2)c2c(OC)c(OC)c(OC)c(CO)c2c1O [Example 71, 1-(3,4-dimethoxyphenyl)-3-(3-ethyl-1-oxopentyl)-4-hydroxy-5-hydroxymethyl-2-methoxycarbonyl-6,7,8-trimethoxynaphthalene] | 5960 nM | 16% | 44% |
| CCC(=O)c1c(C(=O)OC)c(-c2ccc(OC)c(OC)c2)c2sc(CC)c(OC)c2c1O [Example 56, 7-(3,4-Dimethoxyphenyl)-2-ethyl-4-hydroxy-3-methoxy-6-methoxycarbonyl-5-(1-oxopropyl)benzo[b]thiophene] | 1280 nM | 20% | 58% |
| COC(=O)c1c(C(=O)c2ccc(OC)c(OC)c2)c(O)c2cc(OC)c(OC)c(OC)c2c1-c1ccc(OC)c(OC)c1 [Example 24, 3-(3,4-Dimethoxybenzoyl)-1-(3,4-dimethoxyphenyl)-4-hydroxy-2-methoxycarbonyl-6,7,8-trimethoxynaphthalene] | 980 nM | 11% | 54% |
| COC(=O)c1c(C(=O)c2ccccc2OC)c(O)c2cc(OC)c(OC)c(OC)c2c1-c1ccc(OC)c(OC)c1 [Example 20, 1-(3,4-Dimethoxyphenyl)-4-hydroxy-3-(2-methoxybenzoyl)-2-methoxycarbonyl-6,7,8-trimethoxynaphthalene] | 2500 nM | 14% | 63% |
| COC(=O)c1c(C(=O)c2ccc(C)cc2)c(O)c2cc(OC)c(OC)c(OC)c2c1-c1ccc(OC)c(OC)c1 [Example 19, 1-(3,4-Dimethoxyphenyl)-4-hydroxy-2-methoxycarbonyl-3-(4-methylbenzoyl)-6,7,8-trimethoxynaphthalene] | 1050 nM | 11% | 58% |
| CCC(=O)c1c(C(=O)OC)c(-c2ccc(OC)c(OC)c2)c2c(OC)c(OC)c(OC)cc2c1O [Example 16, 1-(3,4-Dimethoxyphenyl)-4-hydroxy-2-methoxycarbonyl-3-(1-oxopropyl)-6,7,8-trimethoxynaphthalene] | 1850 nM | 26% | 56% |
